Experimental data reported in EP1219604A1, “METHOD FOR IMPROVING THE SOLUBILITY OF TRICYCLIC AMINO ALCOHOL DERIVATIVES” (Asahi Kasei Kabushiki Kaisha, priority 1999, dated 2001).
Read-outs that look alike come from different tables or passages of the source.

Columns and labels:
[1] = Crystallinity by powder X-ray diffractometry; assay type: physicochemical; settings: for crystallinity: equation of crystallinity
Text: Whether a compound of the general formula (1) is amorphous or not, or the degree of amorphous status thereof can be determined based on its crystallinity, for example, measured by powder X-ray diffractometry. Generally, the degree of amorphous status can be indicated with the following equation. Degree of Amorphous status = 100 - Crystallinity [formula]
Powder X-ray diffractometry is a method comprising irradiating a powder sample with X-ray to compulsively oscillate electrons contained in the sample material, and measuring at each angle of diffraction the diffraction intensity of the coherent scattering X-ray caused by the compulsively oscillated electrons. The measurement data is indicated with the X-ray diffraction pattern as a diffraction intensity with respect to each angle of diffraction. […] Therefore, an amorphous substance can be distinguished from a crystalline substance based on their X-ray diffraction patterns and/or crystallinities. The measurement by powdery X-ray diffractometry in accordance with the present invention can be carried out with Shimadzu Powder X-ray Diffractometer (XRD-6000) under the following measurement conditions.
• Anticathode: Cu • X-ray tube voltage: 40 kV • X-ray tube current: 30 mA • Goniometer • Driving axle: θ-2θ • Scanning range: 3-49.98° • Scanning rate: 2°/min
The crystallinity was obtained with the soft of Shimazu Powder X-ray Diffractometer by carrying out the corrected calculation treatment of the Lorentz polarization factor of the measured data, calculating the integrated intensity of the peak derived from crystalline substance (Icr) and the integrated intensity of the peak derived from amorphous substance (Ia),respectively and calculating the concentration of crystalline moiety in the test sample, that is the crystallinity based on the ratio thereof by the following equation: x =(1)/(1 + K ×(I a)/(I cr))× 100 [formula] wherein X is a crystallinity; Icr is an integrated intensity of crystalline moiety; Ia is an integrated intensity of amorphous moiety; K is a ratio of the crystalline moiety of X ray intensity scattered from a certain amount of a material to the amorphous moiety thereof (the calculation is usually done under K=1).
Each standard sample was subjected to a powder X-ray diffraction measurement to determine the peak height and crystallinity of each standard sample (the powder X-ray diffraction pattern of the standard samples 1, 2, 3 and 4 being shown in Figures 1, 8, 9 and 10, respectively). A measurement by powdery X-ray diffractometry was carried out with Shimadzu Powder X-ray Diffractometer (XRD-6000) under the following measurement conditions.
Measurement condition: • Anticathode: Cu • X-ray tube voltage: 40 kV • X-ray tube current: 30 mA • Goniometer • Driving axle: θ-2θ • Scanning range: 3-50° • Scanning rate: 2°/min
The crystallinity was calculated with the soft of Shimadzu Powder X-ray Diffractometer. The thus obtained crystallinity of each standard sample was as follows:
These measurements were carried out based on the height of a diffraction peak as an indication, wherein the diffraction peak is characteristic of Compound A. The characteristic diffraction peak is a diffraction peak which can be distinguished from the diffraction peak derived from a pharmaceutically acceptable carrier and can characterize Compound A. Representative examples of the diffraction peak characteristic of Compound A include peaks at θ-2θ of about 8.5°, about 12.8°, about 16.2°, about 20.4°, about 21.4°, about 25.2° and about 26.9°. It is preferred to select a diffraction peak in which the relation between the height of diffraction peak and the crystallinity has a clear linearity.
With respect to each diffraction peak, a graph showing the correlation between the peak height and the crystallinity was made in which the peak height of each standard sample (vertical axis) is potted against the crystallinity (horizontal axis). […]

[2] = Solubility in water, 1st fluid and 2nd fluid of the Japanese pharmacopeia disintegration test (shaking, filtration, HPLC); assay type: physicochemical; settings: thermodynamic from solid
Method: That is, the solutions used were the water specified in the disintegration test method of the 13th edition of the Japanese pharmacopeia, the 1st fluid (a model of human gastric juice) and the 2nd fluid(a model of human intestinal juice). The processes for preparing them are as follows:
The 1st fluid (a model of human gastric juice) was an aqueous solution (pH about 1.2) prepared by dissolving sodium chloride (2.0 g) and hydrochloric acid (7.0 mL) in an amount of water such that the total volume is 1,000 mL.
The 2nd fluid (a model of human intestinal juice) was an aqueous solution (pH about 6.8) prepared by mixing a 0.2 M potassium dihydrogen phosphate aqueous solution (250 mL) with a 0.2 N sodium hydroxide aqueous solution (118 mL) and an amount of water such that the total volume is 1,000 mL.
The present compound (Compound A, B, C or D) in the amount of 20 mg was added to each solution (40 mL) set forth above, which was then shaken with a recipro-shaker (170 rpm) for 2 hours. Each sample (4 mL) obtained at 15, 30, 45, 60 and 120 minutes was filtered through a filter having a pore diameter of 0.45 µm to give a sample solution. The concentration of the said compound in the sample solution was determined by high performance liquid chromatography and the solubility was calculated. The high performance liquid chromatographic measurement was performed with HITACHI D-7000 (wave length: 254 nm; column: YMC-PACK C18; column temperature: 40°C; injection volume: 10 µL; flow rate: 1 mL/min; mobile phase: a solution obtained by dissolving sodium 1-octanesufonate (4.3 g) in a solution of phosphoric acid (1 mL) in water (1000 mL), and adding acetonitrile (400 mL) to 600 mL of the thus obtained solution . The retention time of each of Compounds A, B, C and D was about 20 minutes, about 14 minuets, about 25 minutes and about 27 minutes, respectively. […]
In this connection, the measurement was carried out according to the procedure of Reference Example 1.

[3] = pH 1.2, simulated gastric fluid
[4] = pH 6.8, fassgf or other biorelevant
[5] = pH 1.2, simulated gastric fluid, 1st fluid (model of human gastric juice, pH about 1.2), after 2 hours, crystal form, read-out: Solubility (mg/mL) 1st fluid
[6] = pH 6.8, fassgf or other biorelevant, 2nd fluid (model of human intestinal juice, pH about 6.8), after 2 hours, crystal form, read-out: Solubility (mg/mL) 2nd fluid
[7] = water, solubility after 2 hours, compound in crystal form, 20 mg in 40 mL, read-out: Solubility (mg/mL) Water

SMILES | crystallinity, another lot separately prepared [1] [%] | crystallinity [1] [%] | solubility at 2 h [2, 3] [mg/mL] | solubility at 2 h [2, 4] [mg/mL] | solubility at 2 h ([2]; water) [mg/mL] | solubility at 2 h [2, 5] [mg/mL] | solubility at 2 h [2, 6] [mg/mL] | solubility at 2 h [2, 7] [mg/mL]
CS(=O)(=O)Nc1cc([C@@H](O)CNCCOc2ccc3c(c2)[nH]c2ccccc23)ccc1Cl.Cl [Compound C, (R)-N-[5-[2-[2-(9H-carbazol-2-yloxy)ethylamino]-1-hydroxyethyl]-2-chlorophenyl]methanesulfonamide hydrochloride] | 72.0 | 70.3 | 0.008 | 0.014 | 0.471 | – | – | –
CS(=O)(=O)Nc1cc([C@@H](O)CNCCOc2ccc3c(c2)[nH]c2ccccc23)ccc1Br.Cl [Compound D, (R)-N-[5-[2-[2-(9H-carbazol-2-yloxy)ethylamino]-1-hydroxyethyl]-2-bromophenyl]methanesulfonamide hydrochloride] | – | – | 0.035 | 0.012 | 0.701 | – | – | –
CS(=O)(=O)Nc1cc([C@@H](O)CNCCOc2ccc3c(c2)[nH]c2ccccc23)ccc1O.O=C(O)C(O)C(O)C(=O)O [Compound B, (R)-N-[5-[2-[2-(9H-carbazol-2-yloxy)ethylamino]-1-hydroxyethyl]-2-hydroxyphenyl]methanesulfonamide D-tartrate] | 70.5 | 61.1 | – | – | – | 0.003 | 0.003 | 1.34
CS(=O)(=O)Nc1cccc([C@@H](O)CNCCOc2ccc3c(c2)[nH]c2ccccc23)c1.Cl [Compound A, (R)-N-[3-[2-[2-(9H-carbazol-2-yloxy)ethylamino]-1-hydroxyethyl]phenyl]methanesulfonamide hydrochloride] | 88.8 | 83.5 | – | – | – | 0.002 | 0.005 | 0.123
